Laboratory results published in patent publication US7834023B2 (Portola Pharmaceuticals, Inc., priority 2006, dated 2010).

biological target: T1, P2Y12 receptor (Homo sapiens, UniProt Q9H244); assay: platelet ADP receptor binding assay (ARB): inhibition of [3H]2-MeS-ADP binding to platelets; settings: [3H]2-MeS-ADP binding to apyrase-washed human platelets
T1 construct: endogenous in cells; host or cells: human platelets (outdated from blood banks or fresh), apyrase-washed, whole
Procedure: 1. The Ability of Candidate Molecules to Inhibit the Binding of [^3H]2-MeS-ADP to the […] Receptor on Platelets was Determined Using a Radioligand Binding Assay.
Utilizing this assay the potency of inhibition of such compounds with respect to [^3H]2-MeS-ADP binding to whole platelets is determined. Under the conditions described in II (3) below, the binding of [^3H]2-MeS-ADP is solely due to the interaction of this ligand with the P2Y12 receptor, in that all the specific binding measured in this assay is competable with a P2Y12 antagonist (i.e., the specific binding is reduced to background levels by competition with an excess of P2Y12 antagonist, with no competition of binding when a P2Y1 antagonist is pre-incubated with the platelet preparation). [^3H]2-MeS-ADP binding experiments are routinely performed with outdated human platelets collected by standard procedures at hospital blood banks. Apyrase-washed outdated platelets are prepared as follows (all steps at room temperature, if not indicated otherwise):
Outdated platelet suspensions are diluted with 1 volume of CGS and platelets pelleted by centrifugation at 1900×g for 45 minutes. Platelet pellets are resuspended at 3-6×10^9 platelets/ml in CGS containing 1 U/ml apyrase (grade V, Sigma, St. Louis, Mo.) and incubated for 15 minutes at 37° C. After centrifugation at 730×g for 20 minutes, pellets are resuspended in Hepes-Tyrode's buffer containing 0.1% BSA (Sigma, St. Louis, Mo.) at a concentration of 6.66×10^8 platelets/ml. Binding experiments are performed after >45 minutes resting of the platelets.
Alternatively, binding experiments are performed with fresh human platelets prepared as described in section I (Inhibition of ADP-Mediated Platelet Aggregation in vitro), except that platelets are resuspended in Hepes-Tyrode's buffer containing 0.1% BSA (Sigma, St. Louis, Mo.) at a concentration of 6.66×10^8 platelets/mil. Very similar results are obtained with fresh and outdated platelets.
A platelet ADP receptor binding assay (ARB) using the tritiated potent agonist ligand [^3H]2-MeS-ADP (Jantzen, H. M. et al. (1999) Thromb. Hemost. 81:111-117) has been adapted to the 96-well microtiter format. In an assay volume of 0.2 ml Hepes-Tyrode's buffer with 0.1% BSA and 0.6% DMSO, 1×10^8 apyrase-washed platelets are preincubated in 96-well flat bottom microtiter plates for 5 minutes with serial dilutions of test compounds before addition of 1 nM [^3H]2-MeS-ADP ([^3H]2-methylthioadenosine-5′-diphosphate, ammonium salt; specific activity 20-50 Ci/mmole, obtained by custom synthesis from Amersham Life Science, Inc., Arlington Heights, Ill., or NEN Life Science Products, Boston, Mass.). Total binding is determined in the absence of test compounds. Samples for nonspecific binding may contain 10 μM unlabelled 2-MeS-ADP (RBI, Natick, Mass.). After incubation for 15 minutes at room temperature, unbound radioligand is separated by rapid filtration and two washes with cold (4-8° C.) Binding Wash Buffer (10 mM Hepes pH 7.4, 138 mM NaCl) using a 96-well cell harvester (Minidisc 96, Skatron Instruments, Sterling, Va.) and 8×12 GF/C glassfiber filtermats (Printed Filtermat A, for 1450 Microbeta, Wallac Inc., Gaithersburg, Md.). The platelet-bound radioactivity on the filtermats is determined in a scintillation counter (Microbeta 1450, Wallac Inc., Gaithersburg, Md.). Specific binding is determined by subtraction of non-specific binding from total binding, and specific binding in the presence of test compounds is expressed as % of specific binding in the absence of test compound dilutions. IC50s were derived by non-linear regression analysis.

T1 sequence (Q9H244 whole entry): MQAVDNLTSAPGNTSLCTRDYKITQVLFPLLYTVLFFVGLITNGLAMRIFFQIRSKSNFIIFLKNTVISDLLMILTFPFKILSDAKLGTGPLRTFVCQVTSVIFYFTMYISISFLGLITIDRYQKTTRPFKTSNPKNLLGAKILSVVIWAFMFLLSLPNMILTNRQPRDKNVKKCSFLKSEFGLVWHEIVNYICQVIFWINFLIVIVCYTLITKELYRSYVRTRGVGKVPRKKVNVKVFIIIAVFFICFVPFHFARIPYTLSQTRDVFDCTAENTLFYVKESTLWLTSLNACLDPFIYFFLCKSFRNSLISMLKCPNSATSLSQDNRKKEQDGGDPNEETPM

IC50, < 50 nM:
CNc1cc2c(cc1F)C(=O)N(c1ccc(C(=O)N[C@@H](c3nnn[nH]3)c3ccc(Cl)s3)cc1)CO2 [Compound 87, N-((5-chlorothiophen-2-yl)(1H-tetrazol-5-yl)methyl)-4-(6-fluoro-7-(methylamino)-4-oxo-2H-benzo[e][1,3]oxazin-3(4H)-yl)benzamide]
CNc1cc2c(cc1F)C(=O)N(c1ccc(C(=O)N[C@@H](c3noc(=O)[nH]3)c3ccc(Cl)s3)cc1)CO2 [Compound 88, (S)-N-((5-chlorothiophen-2-yl)(5-oxo-4,5-dihydro-1,2,4-oxadiazol-3-yl)methyl)-4-(6-fluoro-7-(methylamino)-4-oxo-2H-benzo[e][1,3]oxazin-3(4H)-yl)benzamide]
CNc1cc2c(cc1F)C(=O)N(c1ccc(C(=O)N[C@H](c3nnn[nH]3)c3ccc(Cl)s3)cc1)CO2 [Compound 89, (R)-N-((5-chlorothiophen-2-yl)(1H-tetrazol-5-yl)methyl)-4-(6-fluoro-7-(methylamino)-4-oxo-2H-benzo[e][1,3]oxazin-3(4H)-yl)benzamide]

IC50, 50 to 500 nM:
CNc1cc2c(cc1F)C(=O)N(c1ccc(C(=O)NC(Cc3cccs3)C(=O)O)cc1)CO2 (stereo not drawn) [Compound 64, 2-(4-(6-fluoro-7-(methylamino)-4-oxo-2H-benzo[e][1,3]oxazin-3(4H)-yl)benzamido)-3-(thiophen-2-yl)propanoic acid]
CNc1cc2c(cc1F)C(=O)N(c1ccc(C(=O)N[C@H](C(=O)O)c3ccccc3)cc1)CO2 [Compound 65, (S)-2-(4-(6-fluoro-7-(methylamino)-4-oxo-2H-benzo[e][1,3]oxazin-3(4H)-yl)benzamido)-2-phenylacetic acid]
CNc1cc2c(cc1F)C(=O)N(c1ccc(C(=O)NC(C(=O)OC)c3ccc(Cl)s3)cc1)CO2 (stereo not drawn) [Compound 66, methyl 2-(5-chlorothiophen-2-yl)-2-(4-(6-fluoro-7-(methylamino)-4-oxo-2H-benzo[e][1,3]oxazin-3(4H)-yl)benzamido)acetate]
CCOC(=O)C(NC(=O)c1ccc(N2COc3cc(NC)c(F)cc3C2=O)cc1)c1ccc(Cl)s1 (stereo not drawn) [Compound 67, ethyl 2-(5-chlorothiophen-2-yl)-2-(4-(6-fluoro-7-(methylamino)-4-oxo-2H-benzo[e][1,3]oxazin-3(4H)-yl)benzamido)acetate]
CNc1cc2c(cc1F)C(=O)N(c1ccc(C(=O)NC(c3ccc(Cl)s3)c3nnnn3C)cc1)CO2 (stereo not drawn) [Compound 73, N-((5-chlorothiophen-2-yl)(1-methyl-1H-tetrazol-5-yl)methyl)-4-(6-fluoro-7-(methylamino)-4-oxo-2H-benzo[e][1,3]oxazin-3(4H)-yl)benzamide]
CCc1ccc2c(c1)OCN(c1ccc(C(=O)NC(C(=O)O)c3ccc(Cl)s3)cc1)C2=O (stereo not drawn) [Compound 78, 2-(5-chlorothiophen-2-yl)-2-(4-(7-ethyl-4-oxo-2H-benzo[e][1,3]oxazin-3(4H)-yl)benzamido)acetic acid]
CNc1cc2c(cc1F)C(=O)N(c1ccc(C(=O)NC(c3ccc(Cl)s3)c3nc(C)cs3)cc1)CO2 (stereo not drawn) [Compound 85, N-((5-chlorothiophen-2-yl)(4-methylthiazol-2-yl)methyl)-4-(6-fluoro-7-(methylamino)-4-oxo-2H-benzo[e][1,3]oxazin-3(4H)-yl)benzamide]

IC50, > 500 nM:
COc1cccc2c1OCN(c1ccc(C(=O)NC(C(=O)O)c3ccc(Cl)s3)cc1)C2=O (stereo not drawn) [Compound 68, 2-(5-chlorothiophen-2-yl)-2-(4-(8-methoxy-4-oxo-2H-benzo[e][1,3]oxazin-3(4H)-yl)benzamido)acetic acid]
Cc1ccc2c(c1)OCN(c1ccc(C(=O)NC(C(=O)O)c3ccc(Cl)s3)cc1)C2=O (stereo not drawn) [Compound 69, 2-(5-chlorothiophen-2-yl)-2-(4-(7-methyl-4-oxo-2H-benzo[e][1,3]oxazin-3(4H)-yl)benzamido)acetic acid]
CCc1ccc2c(c1)C(=O)N(c1ccc(C(=O)NC(C(=O)O)c3ccc(Cl)s3)cc1)CO2 (stereo not drawn) [Compound 72, 2-(5-chlorothiophen-2-yl)-2-(4-(6-ethyl-4-oxo-2H-benzo[e][1,3]oxazin-3(4H)-yl)benzamido)acetic acid]
COC(=O)C(NC(=O)c1ccc(N2COc3ccc(C)cc3C2=O)cc1)c1ccc(Cl)s1 (stereo not drawn) [Compound 76, methyl 2-(5-chlorothiophen-2-yl)-2-(4-(6-methyl-4-oxo-2H-benzo[e][1,3]oxazin-3(4H)-yl)benzamido)acetate]
Cc1ccc2c(c1)C(=O)N(c1ccc(C(=O)NC(C(=O)O)c3ccc(Cl)s3)cc1)CO2 (stereo not drawn) [Compound 77, 2-(5-chlorothiophen-2-yl)-2-(4-(6-methyl-4-oxo-2H-benzo[e][1,3]oxazin-3(4H)-yl)benzamido)acetic acid]
O=C(NC(C(=O)O)c1ccc(Cl)s1)c1ccc(N2COc3ccccc3C2=O)cc1 (stereo not drawn) [Compound 83, 2-(5-chlorothiophen-2-yl)-2-(4-(4-oxo-2H-benzo[e][31]oxazin-3(4H)-yl)benzamido)acetic acid]
O=C(NC(C(=O)O)c1ccc(Cl)s1)c1ccc(N2COc3cc(NCc4ccc(F)cc4)ccc3C2=O)cc1 (stereo not drawn) [Compound 84, 2-(5-chlorothiophen-2-yl)-2-(4-(7-(4-fluorobenzylamino)-4-oxo-2H-benzo[e][1,3]oxazin-3(4H)-yl)benzamido)acetic acid]
CNc1cc2c(cc1F)C(=O)N(c1ccc(C(=O)N(CCC(=O)O)Cc3ccc(Cl)s3)cc1)CO2 [Compound 86, 3-(N-((5-chlorothiophen-2-yl)methyl)-4-(6-fluoro-7-(methylamino)-4-oxo-2H-benzo[e][1,3]oxazin-3(4H)-yl)benzamido)propanoic acid]
COc1cc2ccn(-c3ccc(C(=O)NC(C(=O)O)c4ccc(Cl)s4)cc3)c(=O)c2cc1F (stereo not drawn) [Compound 92, 2-(5-chlorothiophen-2-yl)-2-(4-(7-fluoro-6-methoxy-1-oxoisoquinolin-2(1H)-yl)benzamido)acetic acid]
CCc1ccc2c(=O)n(-c3ccc(C(=O)NC(C(=O)O)c4ccc(Cl)s4)cc3)ccc2c1 (stereo not drawn) [Compound 93, 2-(5-chlorothiophen-2-yl)-2-(4-(6-ethyl-1-oxoisoquinolin-2(1H)-yl)benzamido)acetic acid]
NC(=O)c1ccc2c(=O)n(-c3ccc(C(=O)NC(C(=O)O)c4ccc(Cl)s4)cc3)ccc2c1 (stereo not drawn) [Compound 94, 2-(4-(6-carbamoyl-1-oxoisoquinolin-2(1H)-yl)benzamido)-2-(5-chlorothiophen-2-yl)acetic acid]
N#Cc1ccc2c(=O)n(-c3ccc(C(=O)NC(C(=O)O)c4cccs4)cc3)ccc2c1 (stereo not drawn) [Compound 95]
O=C(NC(C(=O)O)c1ccc(Cl)s1)c1ccc(-n2ccc3ccccc3c2=O)cc1 (stereo not drawn) [Compound 96, 2-(5-chlorothiophen-2-yl)-2-(4-(1-oxoisoquinolin-2(1H)-yl)benzamido)acetic acid]
O=C(NC(C(=O)O)c1cccs1)c1ccc(-n2ccc3ccccc3c2=O)cc1 (stereo not drawn) [Compound 97, 2-(4-(1-oxoisoquinolin-2(1H)-yl)benzamido)-2-(thiophen-2-yl)acetic acid]
N#Cc1ccc2c(=O)n(-c3ccc(C(=O)NC(C(=O)O)c4ccc(Cl)s4)cc3)ccc2c1 (stereo not drawn) [Compound 98, 2-(5-chlorothiophen-2-yl)-2-(4-(6-cyano-1-oxoisoquinolin-2(1H)-yl)benzamido) acetic acid]
NC(=O)c1cn(-c2ccc(C(=O)NC(C(=O)O)c3ccc(Cl)s3)cc2)c(=O)c2ccccc12 (stereo not drawn) [Compound 99]
N#Cc1cn(-c2ccc(C(=O)NC(C(=O)O)c3ccc(Cl)s3)cc2)c(=O)c2ccccc12 (stereo not drawn) [Compound 100, 2-(5-chlorothiophen-2-yl)-2-(4-(4-cyano-1-oxoisoquinolin-2(1H)-yl)benzamido)acetic acid]
